Assay results: publication PMC12155096 (International Journal of Molecular Sciences, 2025)
Structures can show the parent of a compound that is named as a salt. Where two headings read alike, the source gives them in different places.

Columns and labels:
human CYP2D6 = human CYP2D6 (Homo sapiens, UniProt P10635)
human CYP2C9 [1] = target: T1, human CYP2C9 (Homo sapiens, UniProt P11712)
CYP3A4 = CYP3A4 (Homo sapiens, UniProt P08684)
human CYP2C19 [2] = target: T2, human CYP2C19 (Homo sapiens, UniProt P33261)
human CYP1A2 [3] = target: T3, human CYP1A2 (Homo sapiens, UniProt P05177)
T3 sequence (P05177 1-516): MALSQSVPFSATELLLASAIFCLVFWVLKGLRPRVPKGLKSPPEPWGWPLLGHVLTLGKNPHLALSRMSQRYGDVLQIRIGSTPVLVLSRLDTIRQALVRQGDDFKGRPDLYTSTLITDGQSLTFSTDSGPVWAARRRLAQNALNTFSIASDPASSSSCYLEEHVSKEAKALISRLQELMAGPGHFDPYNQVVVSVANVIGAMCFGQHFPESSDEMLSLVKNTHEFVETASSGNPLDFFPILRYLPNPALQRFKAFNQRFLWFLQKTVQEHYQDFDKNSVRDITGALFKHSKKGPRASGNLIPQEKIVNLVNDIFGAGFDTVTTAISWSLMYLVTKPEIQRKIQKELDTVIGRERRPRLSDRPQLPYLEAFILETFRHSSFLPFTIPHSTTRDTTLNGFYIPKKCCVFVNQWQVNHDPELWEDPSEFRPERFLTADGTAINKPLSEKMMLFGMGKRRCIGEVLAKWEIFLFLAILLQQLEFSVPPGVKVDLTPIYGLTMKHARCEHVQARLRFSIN

human CYP2C19 [4] = target: T2, human CYP2C19; assay: biochemical
human CYP2C9 [5] = target: T1, human CYP2C9; assay: biochemical
human CYP1A2 [6] = target: T3, human CYP1A2; assay: biochemical
[7] = CYP2C9 AC50 (half-maximal activity concentration)
[8] = CYP2C9 IC50 (half-maximal inhibitory concentration)
[9] = CYP1A2 IC50 (half-maximal inhibitory concentration)
[10] = CYP2C19 IC50 (half-maximal inhibitory concentration)
[11] = CYP1A2 AC50 (half-maximal activity concentration)

Chain of CYP3A4 (P08684 whole entry): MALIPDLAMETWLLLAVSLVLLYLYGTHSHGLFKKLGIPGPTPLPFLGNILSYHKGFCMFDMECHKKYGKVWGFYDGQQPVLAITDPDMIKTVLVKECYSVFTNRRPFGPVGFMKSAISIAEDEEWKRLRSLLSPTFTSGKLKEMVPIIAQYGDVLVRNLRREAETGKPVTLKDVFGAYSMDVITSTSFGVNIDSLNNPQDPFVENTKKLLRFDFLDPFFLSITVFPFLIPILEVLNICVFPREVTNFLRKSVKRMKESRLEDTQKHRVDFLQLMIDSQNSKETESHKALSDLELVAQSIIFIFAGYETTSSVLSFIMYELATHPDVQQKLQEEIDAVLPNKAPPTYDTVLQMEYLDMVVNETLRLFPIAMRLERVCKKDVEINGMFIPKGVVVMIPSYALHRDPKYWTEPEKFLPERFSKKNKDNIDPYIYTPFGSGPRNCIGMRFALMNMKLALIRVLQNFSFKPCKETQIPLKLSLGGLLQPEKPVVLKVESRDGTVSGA
Chain of human CYP2D6 (P10635 whole entry): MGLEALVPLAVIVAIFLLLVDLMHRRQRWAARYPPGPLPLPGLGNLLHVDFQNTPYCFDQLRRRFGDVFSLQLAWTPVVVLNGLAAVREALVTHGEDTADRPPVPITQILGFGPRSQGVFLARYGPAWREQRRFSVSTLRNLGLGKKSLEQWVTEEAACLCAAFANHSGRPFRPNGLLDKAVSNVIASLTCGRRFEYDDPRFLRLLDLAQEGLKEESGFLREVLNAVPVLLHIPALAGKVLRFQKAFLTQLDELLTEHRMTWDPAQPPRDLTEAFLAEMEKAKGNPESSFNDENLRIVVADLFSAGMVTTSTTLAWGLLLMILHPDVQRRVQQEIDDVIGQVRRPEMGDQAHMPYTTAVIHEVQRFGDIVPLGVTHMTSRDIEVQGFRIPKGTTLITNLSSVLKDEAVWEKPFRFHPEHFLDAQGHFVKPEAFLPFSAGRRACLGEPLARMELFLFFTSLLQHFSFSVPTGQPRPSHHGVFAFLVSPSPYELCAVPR
T2 sequence (P33261 whole entry): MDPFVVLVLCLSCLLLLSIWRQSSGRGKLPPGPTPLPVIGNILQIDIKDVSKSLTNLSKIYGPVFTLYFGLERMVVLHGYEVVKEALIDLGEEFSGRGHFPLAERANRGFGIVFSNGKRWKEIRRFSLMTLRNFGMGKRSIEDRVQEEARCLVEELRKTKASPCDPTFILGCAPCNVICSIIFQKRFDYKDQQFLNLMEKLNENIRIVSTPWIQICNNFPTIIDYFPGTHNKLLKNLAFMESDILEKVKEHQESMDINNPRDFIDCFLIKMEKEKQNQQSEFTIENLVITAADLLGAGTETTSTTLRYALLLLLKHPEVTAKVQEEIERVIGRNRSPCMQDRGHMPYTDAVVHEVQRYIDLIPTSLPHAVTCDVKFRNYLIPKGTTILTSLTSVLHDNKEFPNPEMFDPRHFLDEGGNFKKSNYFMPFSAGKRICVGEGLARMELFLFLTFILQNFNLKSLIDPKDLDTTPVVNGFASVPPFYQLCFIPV
T1 sequence (P11712 whole entry): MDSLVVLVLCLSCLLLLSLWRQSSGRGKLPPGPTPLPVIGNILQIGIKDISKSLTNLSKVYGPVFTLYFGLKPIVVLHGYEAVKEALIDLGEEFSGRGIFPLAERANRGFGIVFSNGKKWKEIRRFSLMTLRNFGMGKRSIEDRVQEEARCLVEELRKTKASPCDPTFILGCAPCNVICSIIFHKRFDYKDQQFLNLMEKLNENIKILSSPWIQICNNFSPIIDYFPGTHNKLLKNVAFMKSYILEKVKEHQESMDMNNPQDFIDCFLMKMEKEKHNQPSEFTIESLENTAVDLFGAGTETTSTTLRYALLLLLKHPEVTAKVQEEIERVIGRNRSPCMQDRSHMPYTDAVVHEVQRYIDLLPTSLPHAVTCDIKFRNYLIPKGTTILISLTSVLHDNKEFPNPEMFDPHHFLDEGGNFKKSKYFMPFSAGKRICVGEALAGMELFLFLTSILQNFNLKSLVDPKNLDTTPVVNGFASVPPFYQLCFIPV

Which results are given for C[C@]12CC[C@H]3[C@@H](CCC4=CC(=O)CC[C@@]43C)[C@@H]1CC[C@@H]2C(=O)O [Etienic acid]?
CYP2D6 AC50 (half-maximal activity concentration) (human CYP2D6): Inactive; AC50 (human CYP2C9 [1]): 21.2 µM; AC50 (CYP3A4): 20.8 µM; CYP2C19 AC50 (half-maximal activity concentration) (human CYP2C19 [2]): Inactive; CYP1A2 AC50 (half-maximal activity concentration) (human CYP1A2 [3]): Inactive

What does the source list for O=C(C=Cc1ccccc1)OCCc1ccccc1 [2-Phenylethyl 3-phenylprop-2-enoate]?
CYP2D6 AC50 (half-maximal activity concentration) (human CYP2D6): Inactive; AC50 (human CYP2C9 [1]): 25.6 µM; AC50 (CYP3A4): 15.7 µM; AC50 (human CYP2C19 [2]): 20.8 µM; AC50 (human CYP1A2 [3]): 6.35 µM

For O=S(=O)(c1ccc(O)cc1)c1ccc(O)cc1 [4,4'-Sulfonyldiphenol], which AC50 (human CYP2C19 [4]; CYP2C19 AC50 (half-maximal activity concentration)) is on record?
Its AC50 is 16.4 µM.

What about the AC50 (human CYP2C9 [5]; [7]) of the same molecule?
The AC50 was 1.34 µM.

And the “CYP2D6 AC50 (half-maximal activity concentration)” value (from here on “CYP2D6 AC50”) (human CYP2D6)?
The value was “Inactive”.

And the “CYP3A4 AC50 (half-maximal activity concentration)” value (shortened to “CYP3A4 AC50”) (CYP3A4)?
The value was “Inactive”.

And the “CYP1A2 AC50 (half-maximal activity concentration)” value (shortened to “CYP1A2 AC50”) (human CYP1A2 [3])?
Its value is “Inconclusive inhibitor”.

CCC(=O)c1ccc(O)cc1 [Paroxypropione] was tested. Which AC50 (human CYP2C9 [5]; [7]) did it give?
Its AC50 is 15.6 µM.

What about the “CYP2D6 AC50” value (human CYP2D6) of the same molecule?
Its value is “Inactive”.

And the “CYP3A4 AC50” value (CYP3A4)?
Its value is “Inactive”.

And the “CYP2C19 AC50 (half-maximal activity concentration)” value (shortened to “CYP2C19 AC50”) (human CYP2C19 [2])?
Its value is “Inactive”.

What about the “CYP1A2 AC50” value (human CYP1A2 [3]) of the same molecule?
Its value is “Inconclusive inhibitor”.

With CCCCCCCCCCCCCCCCC(C(=O)O)C(O)(CC(=O)O)C(=O)O (stereo not shown) [Agaric acid] as the molecule, how does the “CYP2D6 AC50” value (human CYP2D6) read?
Its value is “Inconclusive inhibitor”.

What about the “CYP2C9 AC50 (half-maximal activity concentration)” value (human CYP2C9 [1]) of the same molecule?
Its value is “Inactive”.

What about the AC50 (CYP3A4) of the same molecule?
The AC50 was 32.4 µM.

What about the “CYP2C19 AC50” value (human CYP2C19 [2]) of the same molecule?
Its value is “Inconclusive activator”.

And the “CYP1A2 AC50” value (human CYP1A2 [3])?
The value was “Inactive”.

How did the AC50 (human CYP2C9 [5]; [7]) turn out when NS(=O)(=O)c1cc2c(cc1Cl)CN(C1CCCCC1)C2=O [Chlorexolone] was run?
The AC50 was 14.4 µM.

What about the “CYP2D6 AC50” value (human CYP2D6) of the same molecule?
The value was “Inactive”.

And the “CYP3A4 AC50” value (CYP3A4)?
Its value is “Inactive”.

And the “CYP2C19 AC50” value (human CYP2C19 [2])?
The value was “Inconclusive activator”.

What about the “CYP1A2 AC50” value (human CYP1A2 [3]) of the same molecule?
Its value is “Inactive”.

What does the source list for CC(=O)c1ccc(O)cc1 [4-Hydroxyacetophenone]?
AC50 (human CYP2C9 [5]): 36.2 µM; CYP2D6 AC50 (half-maximal activity concentration) (human CYP2D6): Inactive; CYP3A4 AC50 (half-maximal activity concentration) (CYP3A4): Inactive; CYP2C19 AC50 (half-maximal activity concentration) (human CYP2C19 [2]): Inactive; CYP1A2 AC50 (half-maximal activity concentration) (human CYP1A2 [3]): Inconclusive inhibitor

With CNCCC(Oc1ccc(C(F)(F)F)cc1)c1ccccc1 (stereo not shown) [Fluoxetine hydrochloride] as the molecule, how does the IC50 (human CYP2C9 [5]; [8]) read?
Its IC50 is 34.2 µM.

What about the IC50 (human CYP1A2 [6]; [9]) of the same molecule?
The IC50 was 20.9 µM.

Which IC50 (human CYP2C19 [4]; [10]) does the source give for Clc1ccc(C(c2ccc(Cl)cc2)C(Cl)(Cl)Cl)cc1 [p,p'-DDT] here?
The IC50 was 0.04 µM.

And the IC50 (human CYP2C9 [5]; [8])?
The IC50 was 4.33 µM.

And the IC50 (human CYP1A2 [6]; [9])?
The IC50 was 9.36 µM.

What about the “CYP2C9 Efficacy (in parenthesis)” value (human CYP2C9 [1]; human) of the same molecule?
The value was 4.33 ± 1.82 (-100 ± 9) %.

What about the “CYP2C19 Efficacy (in parenthesis)” value (human CYP2C19 [2]; human) of the same molecule?
Its value is 0.04 ± 0.02 (-132 ± 4) %.

And the “CYP1A2 Efficacy (in parenthesis)” value (human CYP1A2 [3]; human)?
The value was 9.36 ± 3.19 (-74 ± 16) %.

Which AC50 (human CYP2C9 [5]) does the source give for O=C1OC(OC(=O)c2cccnc2Nc2cccc(C(F)(F)F)c2)c2ccccc21 (stereo not shown) [Talniflumate] here?
The AC50 was 5.56 ± 2.56 µM.

What about the AC50 (human CYP1A2 [6]) of the same molecule?
Its AC50 is 10 ± 5.3 µM.

Which results are given for CN1CC[C@]23c4c5ccc(O)c4O[C@H]2[C@@H](O)C=C[C@H]3[C@H]1C5 [Morphine sulfate pentahydrate]?
CYP2C9 AC50 (half-maximal activity concentration) (human CYP2C9 [1]): Inactive; CYP2C19 AC50 (half-maximal activity concentration) (human CYP2C19 [2]): Inactive; CYP1A2 AC50 (half-maximal activity concentration) (human CYP1A2 [3]): Inactive

With O=[N+]([O-])c1cccc2cccc([N+](=O)[O-])c12 [1,8-Dinitronaphthalene] as the molecule, how does the “CYP2D6 AC50” value (human CYP2D6) read?
Its value is “Inconclusive inhibitor”.

What about the “CYP3A4 AC50” value (CYP3A4) of the same molecule?
The value was “Inconclusive inhibitor”.

For c1ccc2[nH]c(-c3cscn3)nc2c1 [thiabendazole, reference compound], which IC50 (human CYP1A2 [6]; IC50 CYP1A2 assay) is on record?
Its IC50 is 2.1 µM.

How did the AC50 (human CYP1A2 [6]; [11]) turn out when CCOC(=O)c1ccccc1C(=O)OCC [Diethyl phthalate] was run?
Its AC50 is 3.24 µM.

CC(C)Oc1ccc2c(=O)c(-c3ccccc3)coc2c1 [Ipriflavone] was tested. Which AC50 (human CYP2C9 [5]; [7]) did it give?
Its AC50 is 20.1 µM.

And the AC50 (human CYP1A2 [6]; [11])?
Its AC50 is 11.6 µM.

For CCC(=O)O[C@]1(C(=O)COC)[C@@H](C)C[C@H]2[C@@H]3CCC4=CC(=O)C=C[C@]4(C)[C@@]3(F)[C@@H](O)C[C@@]21C [Amelometasone], which IC50 (human CYP2D6) is on record?
Its IC50 is 19.5 µM.

And the IC50 (human CYP2C9 [1])?
Its IC50 is 26 µM.

And the IC50 (human CYP2C19 [2])?
Its IC50 is 43.6 µM.

For COc1ccnc2c1CCCCC2[S+]([O-])c1nc2ccccc2[nH]1 (stereo not shown) [Nepaprazole], which IC50 (human CYP2C19 [4]) is on record?
Its IC50 is 8.96 ± 4.72 µM.

What about the IC50 (human CYP2C9 [5]) of the same molecule?
The IC50 was 13.9 ± 1.59 µM.

What about the IC50 (human CYP1A2 [6]) of the same molecule?
Its IC50 is 14.9 ± 0.97 µM.

Cc1cc2c(cc1S(N)(=O)=O)S(=O)(=O)CCC2 [Meticrane] was tested. Which AC50 (human CYP2C9 [5]) did it give?
Its AC50 is 8.15 ± 1.47 µM.

What about the “CYP2D6 AC50” value (human CYP2D6) of the same molecule?
The value was “Inactive”.

And the “CYP3A4 AC50” value (CYP3A4)?
The value was “Inactive”.

What about the “CYP2C19 AC50” value (human CYP2C19 [2]) of the same molecule?
Its value is “Inactive”.

What about the “CYP1A2 AC50” value (human CYP1A2 [3]) of the same molecule?
The value was “Inactive”.

Which IC50 (human CYP2C19 [4]) does the source give for O=C(NOCC1CC1)c1ccc(F)c(F)c1Nc1ccc(I)cc1Cl [PD-184352] here?
Its IC50 is 0.39 ± 0.13 µM.

What about the IC50 (human CYP2C9 [5]) of the same molecule?
The IC50 was 0.68 ± 0.17 µM.

What about the IC50 (human CYP1A2 [6]) of the same molecule?
Its IC50 is 14.4 ± 0.97 µM.

For CCOc1cc(N)c(Cl)cc1C(=O)NCC1CN(Cc2ccc(F)cc2)CCO1 (stereo not shown) [Mosapride citrate], which IC50 (human CYP2C19 [4]; [10]) is on record?
Its IC50 is 9 µM.

What about the IC50 (human CYP1A2 [6]; [9]) of the same molecule?
The IC50 was 1.14 µM.

What does the source list for O=C1c2ccccc2CCc2ccccc21 [Dibenzosuberone]?
AC50 (human CYP2C19 [4]): 8.39 µM; AC50 (human CYP2C9 [5]): 33.4 µM; AC50 (human CYP1A2 [6]): 1.58 µM
